In patent publication US11130769B2 (Prelude Therapeutics Incorporated, priority 2018, dated 2021):

Assays:
MCL-1 = MCL-1 (Homo sapiens (Human), UniProt Q07820); assay: Cell free Mcl-1:Bim affinity assay (fluorescence polarization competition); type: binding; conditions: 15 nM MCL-1, 5 nM FITC-Bim, 1 hour at room temperature; class symbols; read-out: BIM_Ki
Summary of the method: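 Fluorescence polarization competition: 10-point 3-fold compound dilutions displaced 5 nM FITC-Bim from 15 nM MCL-1 over 1 h at room temperature. Ki was derived from the fitted IC50 using the Nikolovska-Coleska equation, with percent inhibition normalized to DMSO and positive controls.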

H929 cells = assay: Cell viability assay (H929 10 FBS); type: cell-based; conditions: Homo sapiens, NCI-H929, 24 hours, read-out: H929_10FBS IC50
Summary of the method: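 ATP-based luminescence (CellTiter-Glo or ATPlite 1 Step, 30-60 min at RT) gauged viability of H929 myeloma cells after 24 h compound treatment at 37 °C. Cells plated at 4000 per well in 10% FBS RPMI 1640 supplemented with pyruvate, HEPES and glucose.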

MCL-1, sequence (Q07820 whole entry): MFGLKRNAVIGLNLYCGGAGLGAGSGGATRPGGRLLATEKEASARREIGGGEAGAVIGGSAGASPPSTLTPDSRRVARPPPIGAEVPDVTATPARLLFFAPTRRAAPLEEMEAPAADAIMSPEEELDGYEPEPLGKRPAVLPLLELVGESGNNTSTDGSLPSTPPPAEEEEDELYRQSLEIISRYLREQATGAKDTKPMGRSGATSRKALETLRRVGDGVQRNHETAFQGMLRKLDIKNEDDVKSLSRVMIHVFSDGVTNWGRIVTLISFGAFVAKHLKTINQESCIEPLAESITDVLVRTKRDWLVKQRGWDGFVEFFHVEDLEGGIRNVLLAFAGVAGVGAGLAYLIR

| SMILES | Ki (MCL-1) | IC50 (H929 cells) |
| --- | --- | --- |
| CC1(C)OC/C=C/[C@H](OC(=O)NC2COC2)[C@@H]2CC[C@H]2CN2C[C@@]3(CCCc4cc(Cl)ccc43)COc3ccc(cc32)S(=O)(=O)NC1=O [Example 192, [(3R,6R,7S,8E,22S)-6′-Chloro-12,12-dimethyl-13,15,15-trioxo-spiro[11,20-dioxa-15-thia-1,14-diazatetracyclo[14.7.2.03,6.019,24]pentacosa-8,16,18,24-tetraene-22,1′-tetralin]-7-yl] N-(oxetan-3-yl)carbamate] | < 0.001 µM | < 0.5 µM |
| CC1(C)OC/C=C/[C@H](OC(=O)NCCN2CCCCC2)[C@@H]2CC[C@H]2CN2C[C@@]3(CCCc4cc(Cl)ccc43)COc3ccc(cc32)S(=O)(=O)NC1=O [Example 193, [(3R,6R,7S,8E,22S)-6′-Chloro-12,12-dimethyl-13,15,15-trioxo-spiro[11,20-dioxa-15-thia-1,14-diazatetracyclo[14.7.2.03,6.019,24]pentacosa-8,16,18,24-tetraene-22,1′-tetralin]-7-yl] N-[2-(1-piperidyl)ethyl]carbamate] | 0.001 to 0.1 µM | < 0.5 µM |
| CNCCN(C)C(=O)O[C@H]1/C=C/COC(C)(C)C(=O)NS(=O)(=O)c2ccc3c(c2)N(C[C@@H]2CC[C@H]21)C[C@@]1(CCCc2cc(Cl)ccc21)CO3 [Example 194, [(3R,6R,7S,8E,22S)-6′-Chloro-12,12-dimethyl-13,15,15-trioxo-spiro[11,20-dioxa-15-thia-1,14-diazatetracyclo[14.7.2.03,6.019,24]pentacosa-8,16,18,24-tetraene-22,1′-tetralin]-7-yl] N-methyl-N-[2-(methylamino)ethyl]carbamate] | < 0.001 µM | < 0.5 µM |

Results, then the compound that gave them:

| Ki (MCL-1) | IC50 (H929 cells) | SMILES |
| --- | --- | --- |
| < 0.001 µM | < 0.5 µM | CC1(C)OC/C=C/[C@H](OC(=O)NC2CC2)[C@@H]2CC[C@H]2CN2C[C@@]3(CCCc4cc(Cl)ccc43)COc3ccc(cc32)S(=O)(=O)NC1=O [Example 188, [(3R,6R,7S,8E,22S)-6′-Chloro-12,12-dimethyl-13,15,15-trioxo-spiro[11,20-dioxa-15-thia-1,14-diazatetracyclo[14.7.2.03,6.019,24]pentacosa-8,16,18,24-tetraene-22,1′-tetralin]-7-yl] N-cyclopropylcarbamate] |
| < 0.001 µM | < 0.5 µM | CN1CCN(C(=O)O[C@H]2/C=C/COC(C)(C)C(=O)NS(=O)(=O)c3ccc4c(c3)N(C[C@@H]3CC[C@H]32)C[C@@]2(CCCc3cc(Cl)ccc32)CO4)CC1 [Example 189, [(3R,6R,7S,8E,22S)-6′-Chloro-12,12-dimethyl-13,15,15-trioxo-spiro[11,20-dioxa-15-thia-1,14-diazatetracyclo[14.7.2.03,6.019,24]pentacosa-8,16,18,24-tetraene-22,1′-tetralin]-7-yl] 4-methylpiperazine-1-carboxylate] |
| < 0.001 µM | < 0.5 µM | CC1(C)OC/C=C/[C@H](OC(=O)N2CCC(O)CC2)[C@@H]2CC[C@H]2CN2C[C@@]3(CCCc4cc(Cl)ccc43)COc3ccc(cc32)S(=O)(=O)NC1=O [Example 190, [(3R,6R,7S,8E,22S)-6′-Chloro-12,12-dimethyl-13,15,15-trioxo-spiro[11,20-dioxa-15-thia-1,14-diazatetracyclo[14.7.2.03,6.019,24]pentacosa-8,16,18,24-tetraene-22,1′-tetralin]-7-yl] 4-hydroxypiperidine-1-carboxylate] |
| < 0.001 µM | < 0.5 µM | COCCNC(=O)O[C@H]1/C=C/COC(C)(C)C(=O)NS(=O)(=O)c2ccc3c(c2)N(C[C@@H]2CC[C@H]21)C[C@@]1(CCCc2cc(Cl)ccc21)CO3 [Example 191, [(3R,6R,7S,8E,22S)-6′-Chloro-12,12-dimethyl-13,15,15-trioxo-spiro[11,20-dioxa-15-thia-1,14-diazatetracyclo[14.7.2.03,6.019,24]pentacosa-8,16,18,24-tetraene-22,1′-tetralin]-7-yl] N-(2-methoxyethyl)carbamate] |
